Experiments:
[1] = Biodistribution in healthy rats; type: in vivo, Sprague-Dawley rats; conditions: for Biodistribution: Blood / Biodistribution: Brain / Biodistribution: Heart / Biodistribution: Intestine / Biodistribution: Kidneys / Biodistribution: Liver / Biodistribution: Lungs / Biodistribution: Muscle / Biodistribution: Spleen / Biodistribution: Stomach / Biodistribution: Urine: healthy rats
Method: Before injection, ^99mTc complexes were purified using a reversed-phase C18 Sep-Pack cartridge to remove the excess of unlabeled ligands. After purification, the activity recovered was further diluted with PBS to obtain a final solution that is <0.5% in EtOH content. The RCP and the stability of the purified complexes were evaluated prior to in vivo administration and for the succeeding 18 h.
Biodistribution in healthy rats. Biodistribution in healthy rats was performed on complex 1, complex 2 and complex 9 in order to evaluate their pharmacokinetic profile and elimination pathways as well as their resistance to in vivo metabolism. Female Sprague-Dawley rats weighing 180-200 g were anesthetized with an intramuscular injection of a mixture of Zoletil (40 mg/kg) and xylazine (2 mg/kg). A jugular vein was surgically exposed and 100 μl (300-370 kBq) of the solution containing the selected [^99mTc(N)(PNP3OH)]-compound was injected. The rats (n=3) were scarified by cervical dislocation at different times after injection. The blood was withdrawn from the heart with a syringe immediately after death and quantified. Organs were excised, rinsed in saline, weighed, and the activity was counted in a Nal well counter.

[2] = Sera and homogenates stability; type: in vitro ADME, human and rat; conditions: human and rat sera, 37° C., 3 h
Method: Sera and Homogenates Stability.
The in vitro stability of complex 1, complex 2, complex 9 and complex 11 was evaluated by monitoring the RCP at different time points using the following procedures. In a propylene test tube 50 μl of purified [^99mTc(N)(PNP3OH)]-compound were added to: a) 450 μl of human serum, b) 450 μl of rat serum, c) 450 μl of homogenate of rat liver and d) 450 μl of homogenate of rat kidneys. The resulting mixture was incubated at 37° C. for 4 h.
The sample was loaded onto a cartridge, preconditioned with MeOH (1 ml) and equilibrated with water (1 ml), and rinsed with MeOH 5% (3 ml). The activity was eluted with a mixture of EtOH/saline 60% (1 ml). Each fraction was collected and the activity measured using a counter (Cobra II, Packard) to determinate the elution profile. 80% of the loaded activity was collected in the elution fraction. An aliquot of this solution (100 μl) was analyzed by HPLC to assess the degradation of the ^99mTc(N)-complexes (FIG. 11).

[3] = Stability in the reaction solution as function of pH (FIG. 5); type: physicochemical
Method: The variation of (%)RCY of complex 1 and complex 2 over the time (30 min vs 18 h), at different conditions, is shown in FIG. 5. […] Alternatively, free PNP3OH was directly used.

[4] = Challenge reactions (transchelation) with excess Cys, GSH or EDTA, RCP by HPLC; type: physicochemical; conditions: 10 mM
Method: The transchelation studies were performed for some compounds monitoring by HPLC the radiochemical purity (RCP) of the complexes in presence of an excess of exchanging ligands over the time. The experiments were performed in triplicate.
Challenge experiments were carried out on the purified [^99mTc(N)(PNP3OH)]-labeled small size compounds (complex 1, complex 2, complex 9 and complex 10) using an excess of glutathione (GSH) or Cys. An aliquot (50 μl) of an aqueous stock solution of cysteine hydrochloride (10 mM; 1 mM) was added to a propylene test tube containing PB (250 μl, 0.2 M; pH 7.4), water (100 μl) and the selected [^99mTc(N)(PNP3OH)]-compound (100 μl). The mixture was vortexed and incubated at 37° C. for 24 h. A control reaction containing an equal volume of water, instead of cysteine hydrochloride, was studied in parallel. At 30 min, 1, 3 and 24 h, aliquots of the reaction mixture were withdrawn and analyzed by HPLC chromatography. A similar procedure was applied using GSH (50 μl, 10 mM) as challenge ligand.
For [^99mTc(N)(PNP3OH)(Cys-Gly-Lys-Gly-ApoMb)]^+ (“Cys-Gly-Lys-Gly” disclosed as SEQ ID NO: 1) additional experiments were conducted using EDTA (50 μl, 10 mM) as exchanging ligand.

For `CC(=O)NC1C[S][99Tc](#[N])[O]C1=O.COCCN(CCP(CO)CO)CCP(CO)CO` [Complex 1, [^99mTc(N)(PNP3OH)(CysNAc)]], the “Pharmacokinetic profile: blood clearance” value ([1]; healthy animals, within the first 60 min p.i.) was “rapid blood clearance”, the “Biodistribution: Blood” value ([1]; 2 min) was 1.68 ± 0.02 % IA/g and the “Biodistribution: Brain” value ([1]; 2 min) was 0.10 ± 0.01 % IA/g. The “Biodistribution: Heart” value ([1]; 2 min) was 0.54 ± 0.09 % IA/g, the “Biodistribution: Intestine” value ([1]; 2 min) was 0.70 ± 0.02 % IA/g and the “Biodistribution: Kidneys” value ([1]; 2 min) was 4.73 ± 0.37 % IA/g. For the same compound, the “Biodistribution: Liver” value ([1]; 2 min) was 1.73 ± 0.02 % IA/g, the “Biodistribution: Lungs” value ([1]; 2 min) was 1.11 ± 0.22 % IA/g and the “Biodistribution: Muscle” value ([1]; 2 min) was 0.32 ± 0.02 % IA/g. For the same compound, the “Biodistribution: Spleen” value ([1]; 2 min) was 0.40 ± 0.07 % IA/g, the “Biodistribution: Stomach” value ([1]; 2 min) was 0.39 ± 0.05 % IA/g and the “Biodistribution: Blood” value ([1]; 10 min) was 0.96 ± 0.03 % IA/g. For the same compound, the “Biodistribution: Brain” value ([1]; 10 min) was 0.05 ± 0.01 % IA/g, the “Biodistribution: Heart” value ([1]; 10 min) was 0.27 ± 0.01 % IA/g and the “Biodistribution: Intestine” value ([1]; 10 min) was 2.85 ± 0.67 % IA/g. For the same compound, the “Biodistribution: Kidneys” value ([1]; 10 min) was 4.07 ± 0.67 % IA/g, the “Biodistribution: Liver” value ([1]; 10 min) was 2.27 ± 0.01 % IA/g and the “Biodistribution: Lungs” value ([1]; 10 min) was 0.68 ± 0.03 % IA/g. For the same compound, the “Biodistribution: Muscle” value ([1]; 10 min) was 0.14 ± 0.01 % IA/g, the “Biodistribution: Spleen” value ([1]; 10 min) was 0.26 ± 0.00 % IA/g and the “Biodistribution: Stomach” value ([1]; 10 min) was 0.41 ± 0.09 % IA/g. The “Biodistribution: Urine” value ([1]; 10 min) was 31.28 ± 4.07 % IA/g, the “Biodistribution: Blood” value ([1]; 30 min) was 0.43 ± 0.09 % IA/g and the “Biodistribution: Brain” value ([1]; 30 min) was 0.04 ± 0.01 % IA/g. For the same compound, the “Biodistribution: Heart” value ([1]; 30 min) was 0.17 ± 0.07 % IA/g, the “Biodistribution: Intestine” value ([1]; 30 min) was 5.46 ± 3.28 % IA/g and the “Biodistribution: Kidneys” value ([1]; 30 min) was 2.47 ± 0.04 % IA/g. For the same compound, the “Biodistribution: Liver” value ([1]; 30 min) was 1.28 ± 0.03 % IA/g, the “Biodistribution: Lungs” value ([1]; 30 min) was 0.38 ± 0.15 % IA/g and the “Biodistribution: Muscle” value ([1]; 30 min) was 0.11 ± 0.00 % IA/g. The “Biodistribution: Spleen” value ([1]; 30 min) was 0.10 ± 0.01 % IA/g, the “Biodistribution: Stomach” value ([1]; 30 min) was 0.35 ± 0.02 % IA/g and the “Biodistribution: Blood” value ([1]; 60 min) was 0.11 ± 0.00 % IA/g. The “Biodistribution: Brain” value ([1]; 60 min) was 0.01 ± 0.00 % IA/g, the “Biodistribution: Heart” value ([1]; 60 min) was 0.06 ± 0.01 % IA/g and the “Biodistribution: Intestine” value ([1]; 60 min) was 10.07 ± 0.26 % IA/g. For the same compound, the “Biodistribution: Kidneys” value ([1]; 60 min) was 1.15 ± 0.12 % IA/g, the “Biodistribution: Liver” value ([1]; 60 min) was 0.99 ± 0.13 % IA/g and the “Biodistribution: Lungs” value ([1]; 60 min) was 0.14 ± 0.01 % IA/g. The “Biodistribution: Muscle” value ([1]; 60 min) was 0.08 ± 0.03 % IA/g, the “Biodistribution: Spleen” value ([1]; 60 min) was 0.10 ± 0.01 % IA/g and the “Biodistribution: Stomach” value ([1]; 60 min) was 0.24 ± 0.12 % IA/g. The “Biodistribution: Urine” value ([1]; 60 min) was 58.89 ± 2.27 % IA/g, the “Biodistribution: Blood” value ([1]; 120 min) was 0.06 ± 0.01 % IA/g and the “Biodistribution: Brain” value ([1]; 120 min) was 0.01 ± 0.00 % IA/g. The “Biodistribution: Heart” value ([1]; 120 min) was 0.02 ± 0.00 % IA/g, the “Biodistribution: Intestine” value ([1]; 120 min) was 0.57 ± 0.05 % IA/g and the “Biodistribution: Kidneys” value ([1]; 120 min) was 0.77 ± 0.26 % IA/g. The “Biodistribution: Liver” value ([1]; 120 min) was 0.54 ± 0.05 % IA/g, the “Biodistribution: Lungs” value ([1]; 120 min) was 0.10 ± 0.01 % IA/g and the “Biodistribution: Muscle” value ([1]; 120 min) was 0.02 ± 0.00 % IA/g. For the same compound, the “Biodistribution: Spleen” value ([1]; 120 min) was 0.09 ± 0.01 % IA/g, the “Biodistribution: Stomach” value ([1]; 120 min) was 0.25 ± 0.06 % IA/g and the “Biodistribution: Urine” value ([1]; 120 min) was 55.74 ± 14.87 % IA/g. For the same compound, the Sera stability [2] was “high sera stability”, the “Stability in the reaction solution” value ([3]; pH 7.4) was “stable within 18 h” and the “Stability in the reaction solution” value ([3]; pH 9) was “a progressive degradation was observed”.

For “[^99mTc(N)(PNP3OH)(Cys-Gly-Lys-Gly-ApoMb)]^+”, the “Stability in challenge with excess of Cys, GSH and EDTA” value [4] was “do not affect the stability”.

Source: patent US11160886B2, “Method for labeling of sensitive and thermosensitive targeting biomolecules with technetium based compounds” (BRACCO IMAGING SPA, priority 2016, dated 2021)
